Key:
[1] = Measurement of water activity (AquaLab Series 4TE); assay type: physicochemical; settings: for water activity in the packaged body: packaged body with controlled relative humidity; for water activity at 25° C.: composition or crystal as placed in the vial
Experimental: The water activity was measured with AquaLab Series 4TE (METER Group Inc.). A sample having a volume of about 5 ml in a sample dish was placed in AquaLab Series 4TE, and the water activity at 25° C., was measured.

[2] = Evaluation of oxidation stability: QH residual rate after storage, QH ratio by HPLC; assay type: physicochemical
Experimental: The weight ratio of reduced coenzyme Q10 to total coenzyme Q10 (namely, reduced coenzyme Q10/(oxidized coenzyme Q10+reduced coenzyme Q10)) is defined as “QH ratio”. The QH ratio was determined by the following HPLC analysis. For the evaluation of oxidation stability, a rate of the change in the QH ratio at the end of the evaluation from that at the beginning of the evaluation was defined as “QH residual rate”, and the QH residual rate determined by the following expression was used as a measure of oxidation stability.
QH residual rate (%)=100×QH ratio at the end of the evaluation/QH ratio at the beginning of the evaluation
Column: SYMMETRY C18 (manufactured by Waters); 250 mm (length), 4.6 mm (inner diameter)
Mobile phase: C2H5OH:CH3OH=4:3 (v:v)
Detection wavelength: 210 nm

[3] = packaged body with controlled internal relative humidity, stored at 40° C., 2 weeks
[4] = sealed aluminum laminate bag, packed at controlled relative humidity, stored at 25° C., 4 weeks

co-crystal composed of QH and nicotinamide [Comparative Example 3]
water activity in the packaged body [1]: 0.48 | QH residual rate (%) [2, 3]: 82.6%

co-crystal composed of QH and nicotinamide [Example 10]
water activity in the packaged body [1]: 0.53 | QH residual rate (%) [2, 3]: 92.2%

COc1c(O)c(C)c(C/C=C(\C)CC/C=C(\C)CC/C=C(\C)CC/C=C(\C)CC/C=C(\C)CC/C=C(\C)CC/C=C(\C)CC/C=C(\C)CC/C=C(\C)CCC=C(C)C)c(O)c1OC [Example 4, reduced coenzyme Q10]
water activity in the packaged body [1]: 0.85 | QH residual rate (%) [2, 4]: 95.3%

COc1c(O)c(C)c(C/C=C(\C)CC/C=C(\C)CC/C=C(\C)CC/C=C(\C)CC/C=C(\C)CC/C=C(\C)CC/C=C(\C)CC/C=C(\C)CC/C=C(\C)CCC=C(C)C)c(O)c1OC [Example 3, reduced coenzyme Q10]
water activity in the packaged body [1]: 0.50 | QH residual rate (%) [2, 4]: 92.3%

COc1c(O)c(C)c(C/C=C(\C)CC/C=C(\C)CC/C=C(\C)CC/C=C(\C)CC/C=C(\C)CC/C=C(\C)CC/C=C(\C)CC/C=C(\C)CC/C=C(\C)CCC=C(C)C)c(O)c1OC [Comparative Example 1, reduced coenzyme Q10]
water activity at 25° C. [1]: 0.17 | QH residual rate (%) ([2]; sealed glass vial, stored at 40° C., relative humidity 75%, 4 weeks): 87.5%

COc1c(O)c(C)c(C/C=C(\C)CC/C=C(\C)CC/C=C(\C)CC/C=C(\C)CC/C=C(\C)CC/C=C(\C)CC/C=C(\C)CC/C=C(\C)CC/C=C(\C)CCC=C(C)C)c(O)c1OC [Comparative Example 2, reduced coenzyme Q10]
water activity at 25° C. [1]: 0.13 | QH residual rate (%) ([2]; sealed glass vial, stored at 25° C., relative humidity 60%, 4 weeks): 33.3%
